Data as given in ChEMBL document CHEMBL4184304, “Design and synthesis of novel and potent GPR119 agonists with a spirocyclic structure” (Bioorg Med Chem Lett, 2018).
Values after ≈ are worked out from the molar mass of the structure shown.

Columns and labels:
[1] = molecular target: T1, Glucose-dependent insulinotropic receptor (Homo sapiens) (UniProt Q8TDV5); test: Agonist activity at human GPR119 expressed in HEK293 cells assessed as increase in intracellular cAMP level after 30 mins relative to oleoylethanolamide; type: functional, cell-based
T1 sequence (whole entry): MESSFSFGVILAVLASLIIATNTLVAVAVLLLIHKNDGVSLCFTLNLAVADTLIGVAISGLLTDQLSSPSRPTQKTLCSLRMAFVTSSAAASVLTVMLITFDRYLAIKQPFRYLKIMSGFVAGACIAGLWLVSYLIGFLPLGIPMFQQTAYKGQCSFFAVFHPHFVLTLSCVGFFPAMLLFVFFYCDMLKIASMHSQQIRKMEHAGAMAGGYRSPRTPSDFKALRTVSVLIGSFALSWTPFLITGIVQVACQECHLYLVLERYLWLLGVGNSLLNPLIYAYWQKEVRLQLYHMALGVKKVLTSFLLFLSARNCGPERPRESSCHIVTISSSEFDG

[2] = molecular target: T2, Glucose-dependent insulinotropic receptor (Homo sapiens, UniProt Q8TDV5); test: Agonist activity at human GPR119 expressed in HEK293 cells assessed as increase in intracellular cAMP level after 30 mins; type: functional, cell-based
T2 sequence (Q8TDV5 whole entry): T1 sequence (whole entry)

[3] = molecular target: T3, Cytochrome P450 1A2 (Homo sapiens, UniProt P05177); test: Inhibition of CYP1A2 (unknown origin); type: ADME
T3 sequence (P05177 whole entry): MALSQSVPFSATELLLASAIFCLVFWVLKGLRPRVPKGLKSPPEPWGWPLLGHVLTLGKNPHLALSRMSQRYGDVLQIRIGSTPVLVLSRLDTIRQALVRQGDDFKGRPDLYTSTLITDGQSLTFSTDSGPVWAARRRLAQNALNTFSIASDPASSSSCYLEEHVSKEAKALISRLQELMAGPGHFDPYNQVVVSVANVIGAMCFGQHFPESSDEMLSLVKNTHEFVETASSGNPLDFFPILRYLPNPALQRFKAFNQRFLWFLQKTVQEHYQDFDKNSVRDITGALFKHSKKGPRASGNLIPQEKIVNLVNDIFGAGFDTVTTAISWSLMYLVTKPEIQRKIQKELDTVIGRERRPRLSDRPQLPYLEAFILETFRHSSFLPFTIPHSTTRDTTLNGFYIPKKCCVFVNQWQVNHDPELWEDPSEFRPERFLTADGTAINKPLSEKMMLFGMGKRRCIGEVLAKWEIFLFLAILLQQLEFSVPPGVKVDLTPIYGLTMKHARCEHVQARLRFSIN

[4] = test system: Rattus norvegicus; test: Antidiabetic activity in Sprague-Dawley rat assessed as glucose concentration-dependent insulin secretion by measuring reduction in blood glucose AUC at 0.3 mg/kg, po pretreated for 30 mins followed by glucose-challenge measured up to 120 mins by ipGTT relative to control; type: functional; parameters: scale not given: the % may be the effect or the level left
[5] = molecular target: Cytochrome P450 2C9 (Homo sapiens, UniProt P11712); test: Inhibition of CYP2C9 (unknown origin); type: ADME
[6] = test system: Rattus norvegicus; test: Antidiabetic activity in Sprague-Dawley rat assessed as glucose concentration-dependent insulin secretion by measuring reduction in blood glucose AUC at 1 mg/kg, po pretreated for 30 mins followed by glucose-challenge measured up to 120 mins by ipGTT relative to control; type: functional; parameters: scale not given: the % may be the effect or the level left
[7] = molecular target: Cytochrome P450 2C19 (Homo sapiens, UniProt P33261); test: Inhibition of CYP2C19 (unknown origin); type: ADME
[8] = molecular target: Cytochrome P450 3A4 (Homo sapiens, UniProt P08684); test: Inhibition of CYP3A4 (unknown origin); type: ADME
[9] = Solubility in fed state simulated intestinal fluid; type: physicochemical
[10] = molecular target: T4, Cytochrome P450 2C8 (Homo sapiens, UniProt P10632); test: Inhibition of CYP2C8 (unknown origin); type: ADME
T4 sequence (P10632 whole entry): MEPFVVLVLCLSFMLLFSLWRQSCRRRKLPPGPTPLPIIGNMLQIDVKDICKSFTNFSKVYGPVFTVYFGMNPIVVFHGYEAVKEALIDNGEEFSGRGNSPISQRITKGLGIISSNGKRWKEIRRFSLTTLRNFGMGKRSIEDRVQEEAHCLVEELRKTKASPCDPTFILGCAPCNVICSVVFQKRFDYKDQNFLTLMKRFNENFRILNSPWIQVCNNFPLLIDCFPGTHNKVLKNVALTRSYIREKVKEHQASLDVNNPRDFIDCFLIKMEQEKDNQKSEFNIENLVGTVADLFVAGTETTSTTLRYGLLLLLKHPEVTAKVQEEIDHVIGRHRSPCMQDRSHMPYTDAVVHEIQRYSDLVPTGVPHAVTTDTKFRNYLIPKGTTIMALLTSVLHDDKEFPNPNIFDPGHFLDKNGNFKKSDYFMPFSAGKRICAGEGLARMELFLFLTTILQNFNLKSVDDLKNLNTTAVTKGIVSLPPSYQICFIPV

[11] = molecular target: Cytochrome P450 2D6 (Homo sapiens, UniProt P10635); test: Inhibition of CYP2D6 (unknown origin); type: ADME
Sequence of Cytochrome P450 2D6 (P10635 whole entry): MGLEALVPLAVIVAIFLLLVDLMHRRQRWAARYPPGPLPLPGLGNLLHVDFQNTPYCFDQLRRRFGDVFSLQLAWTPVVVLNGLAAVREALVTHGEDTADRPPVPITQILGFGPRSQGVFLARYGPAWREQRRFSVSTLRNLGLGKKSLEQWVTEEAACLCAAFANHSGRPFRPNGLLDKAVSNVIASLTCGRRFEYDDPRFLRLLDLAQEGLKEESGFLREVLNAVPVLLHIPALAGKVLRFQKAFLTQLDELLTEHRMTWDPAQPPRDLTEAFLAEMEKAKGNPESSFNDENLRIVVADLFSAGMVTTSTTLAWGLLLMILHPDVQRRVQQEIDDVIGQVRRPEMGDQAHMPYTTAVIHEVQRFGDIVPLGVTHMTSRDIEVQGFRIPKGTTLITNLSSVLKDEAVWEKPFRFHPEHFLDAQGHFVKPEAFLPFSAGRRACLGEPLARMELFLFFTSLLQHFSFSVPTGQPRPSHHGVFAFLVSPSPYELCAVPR

Sequence of Cytochrome P450 2C19 (P33261 whole entry): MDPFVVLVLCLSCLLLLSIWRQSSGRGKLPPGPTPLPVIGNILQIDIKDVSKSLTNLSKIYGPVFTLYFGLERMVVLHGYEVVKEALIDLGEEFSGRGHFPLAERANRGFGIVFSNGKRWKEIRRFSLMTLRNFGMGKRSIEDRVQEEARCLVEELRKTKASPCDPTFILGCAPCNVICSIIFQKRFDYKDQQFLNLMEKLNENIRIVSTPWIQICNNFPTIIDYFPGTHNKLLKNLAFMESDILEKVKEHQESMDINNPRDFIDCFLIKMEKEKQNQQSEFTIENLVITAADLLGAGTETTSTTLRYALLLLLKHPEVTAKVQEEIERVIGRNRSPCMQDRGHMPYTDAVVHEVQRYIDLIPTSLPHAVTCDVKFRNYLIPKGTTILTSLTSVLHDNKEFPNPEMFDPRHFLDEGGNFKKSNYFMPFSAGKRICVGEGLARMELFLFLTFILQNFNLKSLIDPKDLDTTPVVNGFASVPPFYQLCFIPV
Sequence of Cytochrome P450 2C9 (P11712 whole entry): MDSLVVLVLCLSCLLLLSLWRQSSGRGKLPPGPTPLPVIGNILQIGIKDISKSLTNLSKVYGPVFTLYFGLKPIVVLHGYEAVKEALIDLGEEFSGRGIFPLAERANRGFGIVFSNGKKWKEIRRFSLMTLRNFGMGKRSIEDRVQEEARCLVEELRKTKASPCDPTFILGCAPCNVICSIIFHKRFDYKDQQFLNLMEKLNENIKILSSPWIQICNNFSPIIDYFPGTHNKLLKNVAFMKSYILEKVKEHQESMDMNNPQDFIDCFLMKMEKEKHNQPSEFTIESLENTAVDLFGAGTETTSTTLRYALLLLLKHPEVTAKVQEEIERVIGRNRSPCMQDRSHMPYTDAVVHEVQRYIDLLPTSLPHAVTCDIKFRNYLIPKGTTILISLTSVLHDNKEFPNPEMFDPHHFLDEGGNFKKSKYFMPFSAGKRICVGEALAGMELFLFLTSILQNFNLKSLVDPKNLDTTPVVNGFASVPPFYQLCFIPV
Sequence of Cytochrome P450 3A4 (P08684 whole entry): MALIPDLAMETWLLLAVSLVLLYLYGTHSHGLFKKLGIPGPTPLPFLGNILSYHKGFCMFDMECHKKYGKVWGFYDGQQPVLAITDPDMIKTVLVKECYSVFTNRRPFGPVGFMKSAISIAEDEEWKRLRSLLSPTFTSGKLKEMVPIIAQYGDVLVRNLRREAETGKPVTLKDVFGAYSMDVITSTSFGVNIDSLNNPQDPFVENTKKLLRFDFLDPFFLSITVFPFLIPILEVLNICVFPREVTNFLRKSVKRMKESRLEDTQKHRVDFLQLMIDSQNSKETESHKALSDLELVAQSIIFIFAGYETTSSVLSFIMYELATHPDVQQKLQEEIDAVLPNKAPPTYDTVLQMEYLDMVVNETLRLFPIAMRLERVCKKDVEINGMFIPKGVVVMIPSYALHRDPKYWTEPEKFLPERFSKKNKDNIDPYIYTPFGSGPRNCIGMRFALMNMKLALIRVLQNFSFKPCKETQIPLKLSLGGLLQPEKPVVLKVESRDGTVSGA

Structure (SMILES)	Activity [1] [%]	EC50 [2] [nM]	further results
CC(C)(C)OC(=O)N1CCC(CCCOc2ccc(S(C)(=O)=O)cc2)CC1	106	353	
CN(C)C(=O)c1ccc(OCCCCCC2CCC3(CC2)OCCO3)cc1	92	88	
CC(C)(C)OC(=O)N1CCC(CCCCCCOc2ccc(S(C)(=O)=O)cc2)CC1	72	78	
CN(C)C(=O)c1ccc(OCCCCC[C@H]2CC[C@@]3(CCCO3)CC2)cc1	89	132	
CN(C)C(=O)c1ccc(OCCCCC[C@H]2CC[C@]3(CC2)COC(C)(C)C3)cc1	104	4	IC50 [3]: > 10000 nM; Activity [4]: 14%; IC50 [5]: > 10000 nM; Activity [6]: 33%; IC50 [7]: > 10000 nM; IC50 [8]: > 10000 nM; solubility [9]: 442 µM (≈ 177 µg/mL); IC50 [10]: > 10000 nM; IC50 [11]: > 10000 nM
CN(C)C(=O)c1ccc(OCCCCC[C@H]2CC[C@]3(CCCCO3)CC2)cc1	96	36	
CN(C)C(=O)c1ccc(OCCCCCC2CCC3(CCCCC3)CC2)cc1	91	27	
CN(C)C(=O)c1ccc(OCCCCC[C@H]2CC[C@]3(CCCO3)CC2)cc1	84	95	
CC(C)(C)OC(=O)N1CCC(CCCCOc2ccc(S(C)(=O)=O)cc2)CC1	100	209	
CN(C)C(=O)c1ccc(OCCCCCC2CCN(C(=O)OC(C)(C)C)CC2)cc1	97	5	solubility [9]: 74.2 µM (≈ 31.1 µg/mL)
CN(C)C(=O)c1ccc(OCCCCC[C@H]2CC[C@@]3(CC2)CC(C)(C)CO3)cc1	99	4	
CN(C)C(=O)c1ccc(OCCCCCC2CCC3(CC2)OCCCO3)cc1	96	29	
CC(C)OC(=O)N1CCC(CCCCCOc2ccc(C(=O)N(C)C)cc2)CC1	102	10	IC50 [5]: < 10000 nM; IC50 [7]: < 10000 nM; solubility [9]: 222 µM (≈ 89.7 µg/mL); IC50 [10]: < 10000 nM
CC(C)(C)OC(=O)N1CCC(CCCCCOc2ccc(S(C)(=O)=O)cc2)CC1	93	14	solubility [9]: 15.9 µM (≈ 6.77 µg/mL)
CN(C)C(=O)c1ccc(OCCCCC[C@H]2CC[C@@]3(CCCCO3)CC2)cc1	96	21	
CN(C)C(=O)c1ccc(OCCCCC[C@H]2CC[C@@]3(CC2)CC(C)(C)CCO3)cc1	110	7	
CN(C)C(=O)c1ccc(OCCCCC[C@H]2CC[C@]3(CCC(C)(C)O3)CC2)cc1	64	511	
